# Data from ChEMBL document CHEMBL1156800, “Probing Torpedo californica acetylcholinesterase catalytic gorge with two novel bis-functional galanthamine derivatives” (J Med Chem, 2010).
# Biological target: Acetylcholinesterase (Homo sapiens, UniProt P22303)
# Assay: Inhibition of human recombinant AChE
# Acetylcholinesterase, sequence (P22303 whole entry): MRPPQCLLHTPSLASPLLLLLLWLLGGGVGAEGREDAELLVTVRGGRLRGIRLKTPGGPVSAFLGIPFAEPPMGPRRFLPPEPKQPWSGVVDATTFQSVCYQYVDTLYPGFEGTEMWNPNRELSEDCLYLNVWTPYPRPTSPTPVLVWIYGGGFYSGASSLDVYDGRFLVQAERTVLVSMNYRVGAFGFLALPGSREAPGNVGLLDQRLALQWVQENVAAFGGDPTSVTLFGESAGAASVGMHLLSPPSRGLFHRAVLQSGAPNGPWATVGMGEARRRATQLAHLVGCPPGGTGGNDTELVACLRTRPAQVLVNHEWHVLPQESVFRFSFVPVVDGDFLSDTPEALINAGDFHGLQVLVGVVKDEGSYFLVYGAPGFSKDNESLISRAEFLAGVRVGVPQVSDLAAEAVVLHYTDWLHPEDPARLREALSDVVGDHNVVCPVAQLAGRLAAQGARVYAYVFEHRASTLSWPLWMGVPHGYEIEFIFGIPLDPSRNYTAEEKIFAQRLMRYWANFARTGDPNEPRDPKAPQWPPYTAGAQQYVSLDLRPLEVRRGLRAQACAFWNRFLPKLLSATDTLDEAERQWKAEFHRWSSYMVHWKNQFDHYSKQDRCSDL
structure (smiles),measurement,value
COc1ccc2c3c1O[C@H]1C[C@@H](O)C=C[C@@]31CCN(CCCCCCCCN1C(=O)c3ccccc3S1(=O)=O)C2,IC50,50 nM
